Tests used:
[1] = Spray dry feed solution and solid dispersion evaluation (solubility, stability); type: physicochemical
Method: The spray dry feed solution was prepared by solubilizing Compound I and polymer in the feed solvent. In certain cases, aggressive mixing or homogenization can be used to avoid clumping of the composition.
Different polymers were tested for preferred characteristics in the solid dispersions.
The feed solution was initially evaluated for appropriate solvent with regard to solubility, stability, and viscosity. […] Ethanol and methanol-based feed stocks were assessed for preparation ease and spray dried at a range of inlet and outlet temperatures to assess the robustness of the spray dry process. Both solvents gave rapid dissolution of Compound I and copovidone.

[2] = Pharmacokinetics of Compound I after single and multiple oral doses of solid dispersion tablets; type: in vivo, human; conditions: for half-life: t1/2
Method: The Compound I formulation is prepared as described above by combining Compound I amorphous free base in a 1:1 ratio by mass with copovidone, which is all dissolved in ethanol and spray dried to produce the Compound I solid dispersion. The Compound I solid dispersion is then mixed with various excipients in a dry granulation process to produce tablets that are film coated prior to packaging.
5 mg, 25 mg, 50 mg, and 100 mg tablet formulations were prepared according to Tables 1A and 1B).

[3] = test system: HCV infection of genotypes 1 to 6; conditions: cited from earlier work
[4] = Food effect on Compound I pharmacokinetics (fed vs fasted, light or high-fat breakfast); type: in vivo, human; conditions: for AUCinf % GLSM Ratio (Fed/Fasted) / AUClast % GLSM Ratio (Fed/Fasted) / Cmax % GLSM Ratio (Fed/Fasted) / Cmax / AUC(0-inf) / AUC(0-t): 100 mg; for Cmax / AUC(0-inf) / AUC(0-t): human, plasma, oral, N = 12; for AUC(0-inf): read-out: AUCinf GLSM; for AUC(0-t): read-out: AUClast GLSM
[5] = high-fat/high-calorie breakfast vs fasted
[6] = 100 mg fasted, high-fat breakfast cohort (Cohort 6)
[7] = 100 mg fasted, light breakfast cohort (Cohort 5)

Q: What does the source list for `COC[C@H]1C[C@@H](c2ncc(-c3ccc4c(c3)COc3cc5c(ccc6nc([C@@H]7CC[C@H](C)N7C(=O)[C@@H](NC(=O)OC)C(C)C)[nH]c65)cc3-4)[nH]2)N(C(=O)[C@H](NC(=O)OC)c2ccccc2)C1` [Compound I, Methyl {(2S)-1-[(2S,5S)-2-(9-{2-[(2S,4S)-1-{(2R)-2-[(methoxycarbonyl)amino]-2-phenylacetyl}-4-(methoxymethyl)pyrrolidin-2-yl]-1H-imidazol-5-yl}-1,11-dihydroisochromeno[4′,3′:6,7]naphtho[1,2-d]imidazol-2-yl)-5-methylpyrrolidin-1-yl]-3-methyl-1-oxobutan-2-yl}carbamate]?
A: solubility in feed solvent ([1]; ethanol, methanol, acetone, and dichloromethane (DCM)): excellent solubility; chemical stability in feed solution ([1]; ethanolic feed solution): good chemical stability; dose proportionality of exposure (AUC and Cmax) ([2]; human, in vivo): nonlinear PK; AUC(0-inf) ([2]; human, in vivo, 5 mg): 159 ng·h/mL; AUC(0-t) ([2]; human, in vivo, 5 mg): 134 ng·h/mL; CL/F ([2]; human, in vivo, 5 mg): 58,398.0 mL/h; Cmax ([2]; human, in vivo, 5 mg): 22.4 ng/mL; Tmax ([2]; human, in vivo, 5 mg, Tmax): 1.5 h; half-life ([2]; human, in vivo, 5 mg): 11.2 h; AUC(0-inf) ([2]; human, in vivo, 50 mg): 3020 ng·h/mL; AUC(0-t) ([2]; human, in vivo, 50 mg): 2970 ng·h/mL; CL/F ([2]; human, in vivo, 50 mg): 19,188.4 mL/h; Cmax ([2]; human, in vivo, 50 mg): 371 ng/mL; Tmax ([2]; human, in vivo, 50 mg, Tmax): 2.5 h; half-life ([2]; human, in vivo, 50 mg): 13.6 h; AUC(0-inf) ([2]; human, in vivo, 100 mg): 5060 ng·h/mL; AUC(0-t) ([2]; human, in vivo, 100 mg): 4990 ng·h/mL; CL/F ([2]; human, in vivo, 100 mg): 24,617.9 mL/h; Cmax ([2]; human, in vivo, 100 mg): 575 ng/mL; Tmax ([2]; human, in vivo, 100 mg, Tmax): 2.5 h; half-life ([2]; human, in vivo, 100 mg): 15.7 h; AUC(0-inf) ([2]; human, in vivo, 150 mg): 4980 ng·h/mL; AUC(0-t) ([2]; human, in vivo, 150 mg): 4930 ng·h/mL; Cmax ([2]; human, in vivo, 150 mg): 608 ng/mL; Tmax ([2]; human, in vivo, 150 mg, Tmax): 2.75 h; half-life ([2]; human, in vivo, 150 mg): 16.2 h; AUC(0-inf) ([2]; human, in vivo, 450 mg): 9580 ng·h/mL; AUC(0-t) ([2]; human, in vivo, 450 mg): 9500 ng·h/mL; CL/F ([2]; human, in vivo, 450 mg): 53,676.4 mL/h; Cmax ([2]; human, in vivo, 450 mg): 1120 ng/mL; Tmax ([2]; human, in vivo, 450 mg, Tmax): 3.25 h; half-life ([2]; human, in vivo, 450 mg): 15 h; Tmax ([2]; human, in vivo, po, median Tmax (time of maximum plasma concentrations)): 1.5 to 3.25 h; mean plasma concentrations at 24 hours postdose relative to protein-adjusted EC50 for genotype 1 to 6 HCV replicons ([2]; multiple once-daily doses greater than 5 mg): above the protein-adjusted concentration of a compound inhibiting virus replication by 50% (EC50); anti-HCV activity [3]: potent anti-HCV activity; AUCinf % GLSM Ratio (Fed/Fasted) ([4]; high-fat breakfast): 86.30%; AUClast % GLSM Ratio (Fed/Fasted) ([4]; high-fat breakfast): 86.02%; Cmax % GLSM Ratio (Fed/Fasted) ([4]; high-fat breakfast): 75.02%; AUCinf % GLSM Ratio (Fed/Fasted) ([4]; light breakfast): 124.72%; AUClast % GLSM Ratio (Fed/Fasted) ([4]; light breakfast): 124.84%; Cmax % GLSM Ratio (Fed/Fasted) ([4]; light breakfast): 134.89%; effect of food on absorption and bioavailability ([4]; formulated as a solid dispersion): slowed the rate of absorption; decrease in AUC with food [4, 5]: 14%; decrease in Cmax with food [4, 5]: 25%; Cmax [4, 6]: 486 ng/mL; AUC(0-inf) [4, 6]: 3790 ng·h/mL; AUC(0-t) [4, 6]: 3750 ng·h/mL; Cmax [4, 7]: 582 ng/mL; AUC(0-inf) [4, 7]: 5470 ng·h/mL; AUC(0-t) [4, 7]: 5390 ng·h/mL; Cmax ([4]; 100 mg fed, high-fat breakfast): 364 ng/mL; AUC(0-inf) ([4]; 100 mg fed, high-fat breakfast): 3270 ng·h/mL; AUC(0-t) ([4]; 100 mg fed, high-fat breakfast): 3220 ng·h/mL; Cmax ([4]; 100 mg fed, light breakfast): 785 ng/mL; AUC(0-inf) ([4]; 100 mg fed, light breakfast): 6820 ng·h/mL; AUC(0-t) ([4]; 100 mg fed, light breakfast): 6730 ng·h/mL; increase in AUC with food ([4]; light breakfast vs fasted): 25%; increase in Cmax with food ([4]; light breakfast vs fasted): 35%
